These results are taken from article PMC5248581 (PeerJ, 2017).

In data set [1] the target is T1, human isolated umbilical vein (BK B2R; histamine H1R) (Homo sapiens, UniProt P30411).
T1 sequence (P30411 1-391): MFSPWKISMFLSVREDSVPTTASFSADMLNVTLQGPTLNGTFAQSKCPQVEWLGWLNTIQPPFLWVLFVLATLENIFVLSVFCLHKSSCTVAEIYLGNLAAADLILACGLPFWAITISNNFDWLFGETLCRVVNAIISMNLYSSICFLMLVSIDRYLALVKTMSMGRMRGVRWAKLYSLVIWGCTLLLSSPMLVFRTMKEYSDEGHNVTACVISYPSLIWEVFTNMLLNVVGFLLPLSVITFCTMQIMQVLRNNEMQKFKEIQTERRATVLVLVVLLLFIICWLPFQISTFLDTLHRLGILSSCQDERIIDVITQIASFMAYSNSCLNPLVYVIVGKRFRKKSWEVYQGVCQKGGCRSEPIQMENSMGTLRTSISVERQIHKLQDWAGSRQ
As to conditions: antagonist 1 µM, 30 min before MK. The text has this:
The institutional research ethics board (CHU de Québec) approved the anonymous use of human umbilical cord segments obtained after elective cesarean section deliveries (file number: 2012-323). Informed written consent was obtained from mothers.
(§1) Results are presented as means ± s.e.m. Radioligand binding data were fitted by nonlinear regression to a one-site competition equation using a least-square method (Prism 5.0; GraphPad Software Inc., San Diego, CA, USA) and IC50 values calculated from this procedure. The same computer program was used to draw concentration-effect curves (least square fitting of sigmoidal dose–response equation with variable slope) and to derive contractile EC50 values. Data describing baseline values of heart rate and mean arterial blood pressure and hypotensive responses to peptides in anesthetized rats were assessed by using one-way analysis of variance (ANOVA) followed by the Dunnett’s test (repeated comparison with a common control). The effects of drugs on the hypotensive responses to each dose of MK were assessed by using ANOVA followed by the Dunnett’s test.

For data set [2], the system named is male Sprague-Dawley rats. The protocol: All surgical and experimental procedures were reviewed and approved by the Animal Care and Handling Committee of Laval University, in accordance with the Canadian Council on Animal Care (file no. 2012-223). Experiments were performed on male Sprague-Dawley rats (300–375 g) purchased from Charles River Laboratories (St-Constant, Qc, Canada). Only animals of the male gender have been studied to be consistent with related and recently published data ([Jean et al., 2016a]). The rats were housed in a temperature-controlled room (22 ± 1 °C) on a 12 h/12 h light-dark cycle (lights on at 0600) and had free access to normal chow diet and tap water. They were allowed to acclimate to their environmental conditions for one week prior to being studied. At the end of the acclimation period, the rats were anesthetised with sodium pentobarbital (50 mg kg^−1, i.p., supplemented as required) and had one catheter implanted into the right jugular vein (for intravenous ( i.v.) injection) and one into the left femoral artery (for direct and continuous measurement of blood pressure and heart rate as previously described, [Jean et al., 2016a]). In some experiments, a miniaturized pulsed Doppler flow probe ([Haywood et al., 1981]) was implanted around the distal abdominal aorta (below the level of the ileocaecal artery) through a midline abdominal incision to monitor changes in hindquarter hemodynamic, according to the method previously developed by [Gardiner & Bennett (1988)] and as previously described ([Bachelard et al., 1992]; [Jean et al., 2016a]). Experiments started at least 30 min following the end of surgery in anesthetised rats.
Baseline heart rate and phasic and mean arterial blood pressure were recorded over a period of 15 min in anesthetized rats. […] Peptides were dissolved in isotonic saline (0.9% NaCl) containing 0.1% BSA to prevent the adsorption of peptide to the glassware and plastic surfaces. All i.v. injections were given as 100 µl boluses which were washed in with a further 100 µl of saline (the dead space of the catheter). Only one peptide was tested per group of rats and each injection started with saline-BSA 0.1% followed by the lowest dose of peptide. The next dose was administered once all recorded cardiovascular parameters had returned to baseline after the previous injection (usually 2–10 min). At the end of the experiments each animal was euthanized with an overdose of sodium pentobarbital (240 mg/kg, i.v.).
In these experiments, enalaprilat was intravenously administered as bolus (0.1 mg/kg, 0.1 ml) following a 10 min period of baseline measurements of heart rate and blood pressure. Fifteen minutes later, a dose–response curve to MK was obtained, as described above. […] In these experiments, icatibant was intravenously administered as bolus (25 µg/kg, 0.1 ml) 15 min before the i.v. injection of increasing doses of MK, as above. […] In these experiments, pyrilamine was intravenously administered as bolus (5 mg/kg, 0.1 ml) 15 min before the i.v. injection of increasing doses of MK, as above.
as §1, with “control).” for “control). The effects of drugs on the hypotensive responses to each dose of MK were assessed by using ANOVA followed by the Dunnett’s test.”

In data set [3] the test system is male Sprague-Dawley rats. The data set is described as follows: Acute hindquarter hemodynamic effects in anesthetized rats. The format is in vivo, rat. The settings on record: icatibant 25 µg/kg i.v., 15 min before. The protocol:
Before each experiment, a 30-min stabilization period was allowed, during which continuous recording of heart rate, phasic and mean blood pressure and phasic and mean Doppler shift signals from the hindquarter probe were made in anesthetized rats, using the Biopac data acquisition and analysis system previously described ([Jean et al., 2016a]). Then, a first group of rats (n = 8) received successive i.v. injections of peptide vehicle (saline-BSA 0.1%), BK (6.4 µg/kg), and MK (1.6 µg/kg). […] Further experiments were made in a second group of rats (n = 6) pretreated with the B2R antagonist, icatibant. […] At the end of the experiments the rats were euthanized with an overdose of anesthetic (pentobarbital 240 mg/kg, i.v.).
Results are presented as means ± s.e.m.

For data set [4], the system named is MRGPRX2 (human sequence). As to conditions: ref McNeil et al., 2015; cited from earlier work. The text has this: MRGPRX2 has been recently described as a promiscuous receptor for cationic polymers and drugs that produce direct mast cell degranulation ([McNeil et al., 2015]). […] The contractile effect of MK on the human umbilical vein and ...

Turning to “D-Arg-[Hyp^3, Thi^5, D-Tic^7, Oic^8] bradykinin [icatibant]”, the “effect of receptor antagonist on MK-induced contraction” value in data set [1] is “profound inhibitory effect”. Moreover, the “Basal mean arterial blood pressure after pre-treatment” value in data set [2] (15 min after i.v., enalaprilat 0.1 mg/kg n=6, icatibant 25 µg/kg n=6, pyrilamine 5 mg/kg n=16, means ± s.e.m., control 96.5 ± 2.5) is 90.3 ± 4.6. Also, the “Basal heart rate after pre-treatment” value in data set [2] (15 min after i.v., enalaprilat 0.1 mg/kg n=6, icatibant 25 µg/kg n=6, pyrilamine 5 mg/kg n=16, means ± s.e.m., control 351 ± 10, * P < 0.01 vs control) amounted to 362 ± 28. In addition, in data set [2] (enalaprilat 0.1 mg/kg, icatibant 25 µg/kg, pyrilamine 5 mg/kg i.v., 15 min before MK), the “effect of pretreatment on hypotensive effect of MK” value is “abated”. The “effect of icatibant on cardiovascular responses to BK and MK” value in data set [3] is given as “all significantly abated”; in data set [3] (listed as Icatibant), “significantly abated all types of responses to the 2 kinins”. Also, in data set [4], the “MRGPRX2-activating concentration over B2R-antagonizing concentration” value is given as 5 to 6 orders of magnitude.
